The source of these data is patent publication US20210198277A1, “AMINE-SUBSTITUTED ARYL OR HETEROARYL COMPOUNDS” (Epizyme, Inc., priority 2016, published 2021).

The target of this assay is T1, EHMT2 (Homo sapiens, UniProt Q96KQ7).
T1 construct: host or cells: MDA-MB-231
T1 sequence (Q96KQ7 1-1210): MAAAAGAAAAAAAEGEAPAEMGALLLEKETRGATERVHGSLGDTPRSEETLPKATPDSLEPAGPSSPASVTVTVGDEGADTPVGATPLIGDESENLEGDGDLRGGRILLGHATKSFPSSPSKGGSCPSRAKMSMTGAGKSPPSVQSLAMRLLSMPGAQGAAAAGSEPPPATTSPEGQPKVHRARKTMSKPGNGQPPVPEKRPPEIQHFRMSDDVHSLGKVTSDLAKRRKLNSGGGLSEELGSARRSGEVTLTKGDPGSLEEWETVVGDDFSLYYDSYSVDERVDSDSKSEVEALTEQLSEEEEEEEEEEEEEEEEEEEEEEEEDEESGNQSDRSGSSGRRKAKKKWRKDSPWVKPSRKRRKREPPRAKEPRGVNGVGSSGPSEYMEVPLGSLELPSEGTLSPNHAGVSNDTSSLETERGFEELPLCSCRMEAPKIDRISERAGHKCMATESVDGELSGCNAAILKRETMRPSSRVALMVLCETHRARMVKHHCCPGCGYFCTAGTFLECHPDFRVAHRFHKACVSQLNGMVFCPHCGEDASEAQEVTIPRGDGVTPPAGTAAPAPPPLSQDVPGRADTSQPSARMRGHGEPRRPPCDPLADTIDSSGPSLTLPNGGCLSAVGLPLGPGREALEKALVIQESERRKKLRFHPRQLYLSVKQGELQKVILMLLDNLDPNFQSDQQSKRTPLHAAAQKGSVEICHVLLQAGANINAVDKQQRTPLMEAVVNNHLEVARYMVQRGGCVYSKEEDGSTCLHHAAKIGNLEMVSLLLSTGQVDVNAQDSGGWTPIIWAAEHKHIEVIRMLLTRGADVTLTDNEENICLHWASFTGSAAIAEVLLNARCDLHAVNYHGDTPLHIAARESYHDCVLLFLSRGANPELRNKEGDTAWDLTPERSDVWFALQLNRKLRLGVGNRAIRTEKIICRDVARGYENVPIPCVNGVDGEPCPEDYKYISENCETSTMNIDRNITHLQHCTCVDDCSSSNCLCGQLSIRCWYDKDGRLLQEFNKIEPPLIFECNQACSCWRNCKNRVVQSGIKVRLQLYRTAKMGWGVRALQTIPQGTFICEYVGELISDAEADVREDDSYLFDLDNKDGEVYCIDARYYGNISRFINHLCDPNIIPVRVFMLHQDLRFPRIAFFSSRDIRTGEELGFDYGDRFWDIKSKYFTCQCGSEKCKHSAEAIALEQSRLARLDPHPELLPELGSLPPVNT
As to the kind of experiment: MDA-MB-231 H3K9me2 in-cell Western assay (EHMT2 ICW). To be noted: Table VI; read-out: EHMT2 ICW IC50. The assay is classed as cell-based. In a few lines:
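MDA-MB-231 cells (3,000/well) seeded onto compound, kept 30 min at room temperature, then 48 h at 37 °C, 5% CO2. IC50 from triplicate wells, four-parameter fit.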

Turning to `CCN1CC(COc2cc(Nc3cccn4cnnc34)ncc2OC)C1` [Compound 620], the IC50 is above 10 µM.
Turning to `CNc1ccnc(Nc2ccc(OC)c(OC[C@@H]3CNCCO3)c2)n1` [Compound 938], the half-inhibitory concentration (IC50) is above 10 µM.
For the molecule `CNc1ccnc(Nc2cnc(OC)c(OC[C@@H]3CCN(C4CCC4)C3)n2)n1` [Compound 974], the IC50 was 0.1 to 1 µM.
The result for `CNc1cc(C)nc(Nc2ccc(C(=O)NCc3ccccc3)c(OC)c2)n1` [Compound 877] reads above 10 µM; that for `CNc1ccnc(Nc2ccc(OC)c(OCC(C)CN3CCC3)c2)n1` (stereo not shown) [Compound 1008], 0.1 to 1 µM.
The result for `CNc1cc(C)nc(Nc2ccc(OC)c(C(=O)NCc3ccccc3)c2)n1` [Compound 871] reads above 10 µM; that for `CNc1ccnc(Nc2ccc(OC)c(OC[C@@H](C)CN3CCC3)c2)n1` [Compound 943], 1 to 10 µM; that for `CCN1CCC(O)(COc2cc(Nc3nccc(NC)n3)ccc2OC)C1` (stereo not shown) [Compound 1007], above 10 µM.
Then `CCN1CC[C@@H](COc2cc(Nc3nc(C)cc4[nH]ncc34)ncc2OC)C1` [Compound 947], with 1 to 10 µM; and `CNc1cc(C)nc(Nc2cnc(OC)c(OCCCN3CCC3)c2)n1` [Compound 949], with 0.1 to 1 µM.
On to `CNc1cc(C)nc(Nc2ccc(OC)c(CNCCN(C)C)c2)n1` [Compound 990], for which the half-inhibitory concentration (IC50) fell in the range of 0.1 to 1 µM.
Consider `CCN1CC(COc2cc3nc(NC)nc(C4CCN(C)CC4)c3cc2OC)C1` [Compound 951], for which the IC50 fell in the range of 1 to 10 µM.
`COc1cc2c(C3CCN(C)CC3)cc(N3CCCC3)nc2cc1OCCCN1CCCC1` [Compound 625]: the 50% inhibitory concentration (IC50) is 0.1 to 1 µM.
Then `CCN1CCO[C@H](COc2cc(Nc3nccc(NC)n3)ccc2OC)C1` [Compound 937], with above 10 µM; and `CNc1nc(C2=CC(C)(C)NC(C)(C)C2)c2cc(OC)c(OCCCN3CCCC3)cc2n1` [Compound 961], with above 10 µM.
For the molecule `CNc1ccnc(Nc2ccc(OC)c(OC[C@H](CN3CCCC3)OC)c2)n1` [Compound 920], the 50% inhibitory concentration (IC50) lay in the range of 0.1 to 1 µM.

In general, IC50 refers to the concentration needed to halve the response being measured.
